This assay is described as follows: CF dye efflux assay, POPC vesicles. It counts as biochemical. The conditions noted are these: error = SD of fit. From the text: Time-dep endent fluores cence intensit y traces, I (t), were subsequentl y normalized to fractional intensities, If(t), using equation (1). Therein, I 0 is the intensity just before addition of peptide and I ∞ is the constant intensit y after addition of the calibration cockt ail.
IIf (tt ) = II (tt )−II0II∞ − II0 (1)
The concentration-dependent fractional intensities just before the addition of the calibration cocktail, If, were then normalized to fractional membrane activities, Y, using equation (2).
Therein, If,0 is the fractional intensit y just before addition of the calibration cocktail in absence of peptide and I f,∞ is the constant fractional intensity after addition of the calibration cocktail.
YY = IIf − IIf,0IIf,∞ − IIf,0 (2)
The fractional membrane activities, Y, were subsequently plotted against the peptide concentration, c, and analysed using the Hill equation (3) to obtain the effective molar concentration, EC50, and the Hill coefficient, n. Y0 and Y ma x are the fractional membrane activities in absen ce o f p eptide and at max imal peptide concent rations. For peptides with too little activity to determine Y ma x ex perimentall y, Y max was fixed at 1.0 during fitting.
YY = YY0 + YYmax − YY0nn (3)
Vesicle preparation. 100 µ L of a solution of 25 mg/ml of POPC in chloroform or 200 µ L of a solution of 25 mg/ml of EYPC in chloroform was purged with a stream of nitrogen and dried overnight under high vacuum. The thin lipid film was reh ydrated with 1ml of reh yd ration buffer (= inside buffer, see Table S3 ) b y agitation at room temperature for 30 min and then subjected to 5 freeze- thaw cycles (freezing in liquid nitrogen and thawing at 40 °C).
Subsequently, the liposome suspension was extruded ≥ 15 times through a polycarbonate membrane (pore size 100 nm). Extravesicular components were then removed by size exclusion chromatography using a 1.5 × 12 cm polyprop ylene column (Bio- Rad, German y) with 1.0 g Sephad ex G-50 (medium) as a stationa r y ph ase and the resp ectiv e outside buffer for […]
Ta b l e S 3. Combinations of inside and outside buffer for CF -LUVs.
No. Lipid Inside buffer = rehydration buffer Outside buffer
(1) EYPC 10 mM Hepes, 50 mM CF, pH 7.5 10 mM Hepes, 97 mM NaCl, pH 7.5
(2) POPC 10 mM Hepes, 50 mM CF, pH 7.5 10 mM Hepes, 97 mM NaCl, pH 7.5
(3) POPC 10 mM Hepes, 50 mM CF, pH 7.5 10 mM Hepes, 175 mM glucose, pH 7.5 [a] [a] Glucose b uffers (183 mOsm/L at 25 °C) were used within one week after preparation.
Vesicle quality control. The size distribution of the liposomes was confirmed by DLS to be unimodal and avera ge ve sicles diameters wer e in the ran ge from 115 to 130 nm. The final lipid content in the liposome s uspension after prep ar ation and sep aration w as det ermined b y NMR. CF vesicles are comparabl y leak y and cont ain minor amounts of ex travesi cular CF after a f ew days. When the fluores cence chan ge after vesicl e lys is b y addition of 20 µ L 1.6% (wt/vol) TX-100 was less than a factor of four, the vesicle suspension was no longer used.
Assay protocol. An appropriate volume of the liposome stock solutions was diluted to 2 mL with outside buffer in a 10 ×10 mm quartz glass cuvette to afford a phospholipid concentration of 25 µM. The cuvette was placed into a thermostatted fluorimeter sample holder and gentl y stirred at 300 rpm at (25.0± 0.1) °C. Subsequentl y, the time-dependent change in fluorescence intensity (C F: λ exc = 492 nm, λ em = 517 nm) was recorded during addition of 20 µL peptide stock solution of var ying concentrations at 60 s and 20µ L of a calibration cocktail (1. 6% […]
intensities, If(t), using equation (1) and the concentration- dependent fractional intensities just before the addition of th e calibration co cktail, I f, w ere then normaliz ed to fr actional membran e activities, Y, using equation (2). The fractional membrane activities, Y, were subsequently plotted against the peptide concentration, c, and anal ysed using the Hill equation (3) to obtain […]

Where [1] appears, read: single-channel, 25 µM POPC⸧CF-LUVs, inside 10 mM Hepes, 50 mM CF, pH 7.5, outside 10 mM Hepes, 175 mM glucose, pH 7.5, n = 1, read-out: EC50, CF assay in glucose-containing buffer.

From article PMC12851007 (Angewandte Chemie (International Ed. in English), 2025) come the findings set out here.

Structures are written as SMILES. Read-outs that look alike come from different tables or passages of the source. Where a SMILES comes first, the peptide text is derived from it.

Turning to `CC[C@H](C)[C@H](NC(=O)[C@H](CCCCN)NC(=O)[C@@H](NC(=O)[C@@H](N)CCC(N)=O)[C@@H](C)CC)C(=O)N[C@@H](Cc1c[nH]c2ccccc12)C(=O)N[C@@H](Cc1ccccc1)C(=O)N[C@@H](CCC(N)=O)C(=O)N[C@@H](CC(N)=O)C(=O)N[C@@H](CCCNC(=N)N)C(=O)N[C@@H](CCCNC(=N)N)C(=O)N[C@@H](CCSC)C(=O)N[C@@H](CCCCN)C(=O)N[C@@H](Cc1c[nH]c2ccccc12)C(=O)N[C@@H](CCCCN)C(=O)N[C@@H](CCCCN)C(=O)O` (H-QIKIWFQNRRMKWKK-OH), the “EC50, CF assay, isosmotic” value (25 µM POPC⸧CF-LUVs diluted into 10 mM Hepes, 97 mM NaCl, pH 7.5, 25 °C, fractional activity at 590 s, n = 1 (Table S6, Figures S17, S19)) is “too low to determine”. Also, under “25 µM lipid, POPC⊃CF-LUVs, 10 mM Hepes, 97 mM NaCl, pH 7.5, 25 °C, fractional activity at 590 s, Hill fit, n = 1 (Table S5)”, the “EC50, CF assay, POPC” value is “too low to determine”. In general, EC50 refers to the midpoint of the concentration-response curve. With `CC(C)C[C@H](NC(=O)[C@H](CC(C)C)NC(=O)[C@H](CCCNC(=N)N)NC(=O)[C@@H](N)CC(C)C)C(=O)N[C@@H](CCCNC(=N)N)C(=O)N[C@@H](Cc1c[nH]c2ccccc12)C(N)=O` [LRLLRW] (H-LRLLRW-NH2), the EC50 under setting [1] came to 101 ± 9 µM. As for `CC(C)[C@H](NC(=O)[C@H](CCCCN)NC(=O)[C@H](CCCNC(=N)N)NC(=O)[C@H](CCCCN)NC(=O)[C@H](CCCCN)NC(=O)[C@H](CCCCN)NC(=O)[C@@H]1CCCN1C(=O)[C@H](CCC(N)=O)NC(=O)[C@H](CO)NC(=O)[C@H](Cc1c[nH]c2ccccc12)NC(=O)[C@H](CC(=O)O)NC(=O)[C@@H](NC(=O)[C@H](Cc1c[nH]c2ccccc12)NC(=O)[C@H](Cc1c[nH]c2ccccc12)NC(=O)[C@@H](NC(=O)[C@H](CC(=O)O)NC(=O)[C@H](Cc1c[nH]c2ccccc12)NC(=O)[C@H](Cc1c[nH]c2ccccc12)NC(=O)[C@@H](NC(=O)[C@H](CC(=O)O)NC(=O)[C@@H](N)CCCCN)[C@@H](C)O)[C@@H](C)O)[C@@H](C)O)C(=O)O` [Pep‐1] (H-KDTWWDTWWTDWSQPKKKRKV-OH), the EC50 runs as follows: (25 µM lipid, POPC⊃CF-LUVs, 10 mM Hepes, 97 mM NaCl, pH 7.5, 25 °C, fractional activity at 590 s, Hill fit, n = 1 (Table S5), read-out: EC50, CF assay, POPC) 114 ± 5 µM; under setting [1], 540 ± 90 µM. On to `CC[C@H](C)[C@H](NC(=O)[C@H](CCCCN)NC(=O)[C@H](CCCCN)NC(=O)[C@H](C)NC(=O)[C@H](CC(C)C)NC(=O)[C@H](C)NC(=O)[C@H](C)NC(=O)[C@H](CC(C)C)NC(=O)[C@H](C)NC(=O)[C@H](CCCCN)NC(=O)[C@H](CC(C)C)NC(=O)[C@H](CC(N)=O)NC(=O)[C@@H](NC(=O)[C@H](CCCCN)NC(=O)CNC(=O)[C@H](CC(C)C)NC(=O)[C@H](CC(C)C)NC(=O)[C@H](Cc1ccc(O)cc1)NC(=O)CNC(=O)[C@H](C)N)[C@@H](C)CC)C(=O)N[C@@H](CC(C)C)C(=O)O` [TP10], for which the EC50 under setting [1] amounted to 0.12 ± 0.02 µM.
